Measured values taken from ChEMBL document CHEMBL5365544, “Design, synthesis of auristatins-glucuronide conjugates targeting the β-glucuronidase in tumor microenvironment” (Bioorg Med Chem Lett, 2023).
The source made the active and inactive calls. The calls are words filed in the database; no cut-off is given here.

Columns and labels:
[1] = Chemical stability of compound in phosphate buffer at pH 7.4 for 37 degC assessed as degradation measured after 48 hrs by HPLC method; format: physicochemical; conditions: pH 7.4, 48 h
[2] = Stability of compound in bovine serum solution for 37 degC assessed as degradation measured after 48 hrs by HPLC method; format: ADME, cell-free, Bos taurus; conditions: cattle
[3] = Chemical stability of compound in phosphate buffer at pH 7.4 for 37 degC assessed as drug degradation measured after 20 mins in presence of beta-glucuronidase by HPLC method relative to control; format: physicochemical; conditions: phosphate buffer with beta-glucuronidase, read-out: Drug degradation
[4] = Chemical stability of compound in phosphate buffer at pH 7.4 for 37 degC assessed as drug degradation measured after 2 hrs in presence of beta-glucuronidase by HPLC method; format: physicochemical; conditions: pH 7.4, 2 h
HeLa [5] = experiment: Antiproliferative activity against human HeLa cells assessed as inhibition of cell growth; format: functional, cell-based
A549 [6] = experiment: Antiproliferative activity against human A549 cells assessed as inhibition of cell growth; format: functional, cell-based
HCT-116 [7] = experiment: Antiproliferative activity against human HCT-116 cells assessed as inhibition of cell growth; format: functional, cell-based
HeLa [8] = experiment: Antiproliferative activity against human HeLa cells assessed as inhibition of cell growth in presence of beta-glucuronidase; format: functional, cell-based
A549 [9] = experiment: Antiproliferative activity against human A549 cells assessed as inhibition of cell growth in presence of beta-glucuronidase; format: functional, cell-based
HCT-116 [10] = experiment: Antiproliferative activity against human HCT-116 cells assessed as inhibition of cell growth in presence of beta-glucuronidase; format: functional, cell-based
HCT-116 [11] = experiment: Antitumor activity against human HCT-116 cells xenografted in iv dosed BALB/C mouse assessed as tumor growth inhibition administered every 5 days; format: functional, organism-based; conditions: dose 2-4 mg/kg, time 5.0 day
[12] = Toxicity in BALB/c mouse assessed as body weight loss at 2 to 4 mg/kg, iv administered every 3 days; format: organism-based; conditions: in vivo, 72 h, dose 2-4 mg/kg, time 3 day
[13] = Toxicity in BALB/c mouse assessed as side effect at 2 to 4 mg/kg, iv administered every 3 days; format: organism-based; conditions: in vivo, 72 h, dose 2-4 mg/kg, time 3 day
HCT-116 [14] = experiment: Antitumor activity against human HCT-116 cells xenografted in BALB/C mouse assessed as tumor growth inhibition at 0.5 mg/kg, iv administered every 5 days; format: functional, organism-based; conditions: time 5.0 day

Structure (SMILES) | Stability [1] | Stability [2] | metabolised at 20 min [3] | Stability [4] | IC50 (HeLa [5]) | IC50 (A549 [6]) | IC50 (HCT-116 [7]) | IC50 (HeLa [8]) | IC50 (A549 [9]) | IC50 (HCT-116 [10]) | Activity (HCT-116 [11]) | Activity [12] | Activity [13] | Activity (HCT-116 [14])
CC[C@H](C)[C@@H]([C@@H](CC(=O)N1CCC[C@H]1[C@H](OC)[C@@H](C)C(=O)N[C@H](C)[C@@H](OC(=O)N(C)CCN(C)C(=O)OCc1ccc(O[C@@H]2O[C@H](C(=O)O)[C@@H](O)[C@H](O)[C@H]2O)c([N+](=O)[O-])c1)c1ccccc1)OC)N(C)C(=O)[C@@H](NC(=O)[C@H](C(C)C)N(C)C)C(C)C | Stable | Stable | 48% | Unstable | 1650 nM | 1520 nM | 1490 nM | 5.73 nM | 6.38 nM | 6.61 nM | Dose-Dependent Effect | Non-Toxic |  | 
CC[C@H](C)[C@@H]([C@@H](CC(=O)N1CCC[C@H]1[C@H](OC)[C@@H](C)C(=O)N[C@H](C)[C@@H](O)c1ccccc1)OC)N(C)C(=O)[C@@H](NC(=O)[C@H](C(C)C)N(C)C)C(C)C |  |  | 37% | Unstable | 4.89 nM | 5.03 nM | 4.96 nM |  |  |  |  |  | Non-Toxic | Active
CC[C@H](C)[C@@H]([C@@H](CC(=O)N1CCC[C@H]1[C@H](OC)[C@@H](C)C(=O)N[C@H](C)[C@@H](OC(=O)N(C)CCN(C)C(=O)OCc1ccc(O[C@@H]2O[C@H](C(=O)O)[C@@H](O)[C@H](O)[C@H]2O)c([N+](=O)[O-])c1)c1ccc(F)cc1)OC)N(C)C(=O)[C@@H](NC(=O)[C@H](C(C)C)N(C)C)C(C)C | Stable | Stable |  |  | 990 nM | 1020 nM | 1110 nM | 8.3 nM | 9.68 nM | 9.11 nM |  |  |  | 
CC[C@H](C)[C@@H]([C@@H](CC(=O)N1CCC[C@H]1[C@H](OC)[C@@H](C)C(=O)N[C@H](C)[C@@H](O)c1ccc(F)cc1)OC)N(C)C(=O)[C@@H](NC(=O)[C@H](C(C)C)N(C)C)C(C)C |  |  |  |  | 4.87 nM | 5.52 nM | 6.13 nM |  |  |  |  |  |  | 
